What was measured:
[1] = Adhesion Test (reservoir layer to support film); type: physicochemical; design: key: A positive (+) result for adhesion indicates the carrier cohesively failed with transfer of polymer carrier material of the reservoir layer to the support film; settings: Camie SBR carrier (CAMIE 390B); repellent 2% in dry carrier, coated on PET tape
Experimental: Samples of 0.75 inch (19 mm) diameter were coated in circular molds onto the PET tape to a dry thickness of approximately 0.020 inch (0.51 mm). The insect repellent was formulated at 2% within the dry carrier. Subsequent to coating, the samples were first allowed to air dry at room temperature for approximately 1 hour, then placed in a heated air convection oven at approximately […] for several hours. Upon removal, samples sat overnight before evaluation. A sharpened to a point like a flat wooden dowel (approximately 3 mm diameter) was used to separate the reservoir layer/support film coating interface. The sharpened end of the wooden dowel was applied under hand pressure at the interface in an attempt to separate the reservoir layer from the support film. A positive (+) result for adhesion indicates the carrier cohesively failed with transfer of polymer carrier material of the reservoir layer to the support film.

[2] = Tack Test (wooden dowel probe on reservoir layer); type: physicochemical; design: key: A positive (+) result for tack indicates there was no transfer of the carrier polymer of the reservoir layer to the probe (adhesive failure); settings: repellent 2% in dry carrier, coated on PET tape
Experimental: Samples of 0.75 inch (19 mm) diameter were coated in circular molds onto the PET tape to a dry thickness of approximately 0.020 inch (0.51 mm). The insect repellent was formulated at 2% within the dry carrier. Subsequent to coating, the samples were first allowed to air dry at room temperature for approximately 1 hour, then placed in a heated air convection oven at approximately […] for several hours. Upon removal, samples sat overnight before evaluation. As a measure of tack, the surface of the coated formulation was probed with the flat end of a wooden dowel The wooden dowel was applied under hand pressure to the surface of the reservoir layer for 1 second long in contact. A positive (+) result for tack indicates there was no transfer of the carrier polymer of the reservoir layer to the probe (adhesive failure).

[3] = Bostik EVA carrier (comparative)

adhesion [1]	tack [2, 3]	tack ([2]; Camie SBR carrier (CAMIE 390B))	Structure (SMILES)
+ +	+	+ +	CC(C)=CCC/C(C)=C/CO [Geraniol]
+ +	+	+ +	CCN(CC)C(=O)c1cccc(C)c1 [Deet, N,N-diethyl-meta-toluamide]

From patent publication US20230292750A1, “INSECT REPELLENT PATCHES AND TUBULAR ARTICLES” (ACHIEVE EQUINE LLC, priority 2020, published 2023)
